Results: publication PMC10220285, “Development of an assay pipeline for the discovery of novel small molecule inhibitors of human glutathione peroxidases GPX1 and GPX4” (Redox Biology, 2023)

Biological target: T1, GPX1 (Homo sapiens, UniProt P07203)
T1 construct: made in house; host or cells: E. coli
T1 sequence (P07203 1-203): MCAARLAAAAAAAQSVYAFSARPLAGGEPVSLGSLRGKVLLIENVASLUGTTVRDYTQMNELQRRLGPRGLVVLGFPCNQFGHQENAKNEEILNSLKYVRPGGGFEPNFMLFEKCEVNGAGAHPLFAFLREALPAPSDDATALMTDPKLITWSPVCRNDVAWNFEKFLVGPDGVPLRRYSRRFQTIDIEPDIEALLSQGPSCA
Experiment: Monobromobimane orthogonal endpoint assay, GPX1
Format: biochemical
Conditions: initial tests comparing GR-coupled and mBBr assay formats
Description: As an orthogonal assessment of GPX inhibition, a monobromobimane endpoint assay was used (Fig. 1E). Briefly, 30 μL GPX mixture (0.01% BSA and enzyme [1 nM GPX1 or 25 nM GPX4] in TES buffer) was added to columns 2–24 of 384-well black medium-binding plates (Greiner) using a BioRAPTR FRD. TES buffer was used as a no-enzyme control in column 1. Compounds and controls were added in 11-point dose-response titration and incubated with enzyme for 30 min whereupon 10 μL of 400 μM GSH in TES buffer was added before starting the reaction with the addition of 10 μL 200 μM CHP and the reaction was left at room temperature for 10 min (GPX1) or 15 min (GPX4). Upon GPX activity, GSH was depleted over time, whereupon 500 μM mBBr was added and fluorescence at 394/490 was measured using a Viewlux multimodal detector every 20 s for 20 min.
Percent activity was determined by first calculating delta RFU (decrease in fluorescence between t = 0 and t = 20/30 min in primary GPX, GR counter-screen, and TXNRD1 assays, or increase in fluorescence between t = 0 and t = 20 min in the Monobromobimane GPX endpoint assay), and normalizing enzyme activity using median delta RFU values for DMSO-treated enzyme control, and DMSO-treated no-enzyme controls.
Monobromobimane (mBBr) is a heterocyclic compound that reacts readily with low molecular weight thiols, like glutathione. […]

Q: Which IC50 does the source give for `CC(=O)OC[C@H]1O[C@@H]([S-])[C@H](OC(C)=O)[C@@H](OC(C)=O)[C@@H]1OC(C)=O.CCP(CC)CC.[Au+]` [Auranofin] here?
A: 5.3 µM
